Measured values from patent publication US20220096516A1, “OLIGONUCLEOTIDE MOLECULE AND APPLICATION THEREOF IN TUMOR THERAPY” (Ractigen Therapeutics, priority 2019, published 2022).
d = 2'-deoxy (DNA); r = 2'-OH (RNA)

Test system: LHPP gene
Assay: High-throughput screening of saRNAs targeting LHPP promoter: LHPP mRNA by one-step RT-qPCR in Huh7 cells
Format: cell-based, human
Details: 10 nM saRNA, 72 hours, relative to control (Mock)
Experimental: Human liver cancer cell line Huh7 was cultured in DMEM medium (Gibco), containing 10% of calf serum (Sigma-Aldrich) and 1% of penicillin/streptomycin (Gibco). The cells were cultured at 5% CO2 and 37° C. According to the instructions provided by the manufacturer, RNAiMax (Invitrogen, Carlsbad, Calif.) was used to transfect small activating RNAs at a concentration of 10 nM (unless otherwise specified).
At the end of transfection, the media were discarded, and each well was washed with 150 μL of PBS once. After discarding the PBS, 50 μL of cell lysis buffer (Takara) was added to each well and incubated at room temperature for 5 min. 1 μL of the resulted cell lysis was taken from each well and analyzed by qPCR on an ABI 7500 fast real-time PCR system (Applied Biosystems) using a one-step TB Green™ PrimeScrip™ RT-PCR kit II (Takara, RR086A) Each transfection sample was repeatedly amplified in 3 replicate wells.
Reaction conditions were as follows: reverse transcription reaction (stage 1): 5 min at 42° C., 10 s at 95° C.; PCR reaction (stage 2): 5 s at 95° C., 20 s at 60° C., 45 cycles of amplification. HPRT1 and TBP were used as internal reference genes. PCR primers used for amplifying LHPP, HPRT1 and TBP genes are shown in Table 2, wherein LHPP was amplified using the LHPP F1/R1 primer pair.
To calculate the relative expression level (Erel) of LHPP (target gene) in an saRNA-transfected sample relative to control treatment (Mock), the Ct values of the target gene and the two internal reference genes were substituted into formula 1
Erel=2^(CtT^m^-CtT^s^)/((2^(CtR1^m^-CtR1^s^)*2^(CtR2^m^-CtR2^s^))^(1/2))
wherein CtTm was the Ct value of the target gene from the control (Mock) sample; CtTs was the Ct value of the target gene from the saRNA-treated sample; CtR1m was the Ct value of the internal reference gene 1 from the control (Mock) sample; CtR1s was the Ct value of the internal reference gene 1 from the saRNA-treated sample; CtR2m was the Ct value of the internal reference gene 2 from the control (Mock) sample; and CtR2s was the Ct value of the internal reference gene 2 from the saRNA-treated sample.
In order to obtain saRNAs capable of activating LHPP transcription, Huh7 cells were transfected with each of the aforementioned 290 saRNAs with a transfection concentration of 10 nM, and 72 hours later, according to the same method as described above, the cells were lysed and analyzed by one-step RT-qPCR to obtain the relative (compared with the control (Mock)) expression level of LHPP gene for each saRNA-treated sample. […] The observed maximum activation and maximum inhibition is 3.46 fold and 0.49 fold, respectively, saRNAs with activating activity are referred to as activating saRNAs, and the saRNAs with inhibiting activity are referred to as inhibiting saRNAs.

Row | Substance | Fold of changes in relative LHPP mRNA expression level | Fold of changes in relative LHPP mRNA expression level (log2)
1 | RAG7-122: saRNA duplex; sense GCUGAUCUCCUGGGAAGAATT (SEQ ID NO: 103), antisense UUCUUCCCAGGAGAUCAGCTT (SEQ ID NO: 267) (sugars from the 5' end r19 d2, backbone not given here) | 1.21 fold | 0.28 log2
2 | RAG7-123: saRNA duplex; sense CGCUGAUCUCCUGGGAAGATT (SEQ ID NO: 68), antisense UCUUCCCAGGAGAUCAGCGTT (SEQ ID NO: 232) (sugars from the 5' end r19 d2, backbone not given here) | 1.30 fold | 0.38 log2
3 | RAG7-125: saRNA duplex; sense UCCGCUGAUCUCCUGGGAATT (SEQ ID NO: 55), antisense UUCCCAGGAGAUCAGCGGATT (SEQ ID NO: 219) (sugars from the 5' end r19 d2, backbone not given here) | 1.36 fold | 0.44 log2
4 | RAG7-126: saRNA duplex; sense GUCCGCUGAUCUCCUGGGATT (SEQ ID NO: 45), antisense UCCCAGGAGAUCAGCGGACTT (SEQ ID NO: 209) (sugars from the 5' end r19 d2, backbone not given here) | 1.39 fold | 0.48 log2
5 | RAG7-128: saRNA duplex; sense UUGUCCGCUGAUCUCCUGGTT (SEQ ID NO: 111), antisense CCAGGAGAUCAGCGGACAATT (SEQ ID NO: 275) (sugars from the 5' end r19 d2, backbone not given here) | 1.20 fold | 0.26 log2
6 | RAG7-130: saRNA duplex; sense CUUUGUCCGCUGAUCUCCUTT (SEQ ID NO: 77), antisense AGGAGAUCAGCGGACAAAGTT (SEQ ID NO: 241) (sugars from the 5' end r19 d2, backbone not given here) | 1.28 fold | 0.36 log2
7 | RAG7-132: saRNA duplex; sense CUCUUUGUCCGCUGAUCUCTT (SEQ ID NO: 4), antisense GAGAUCAGCGGACAAAGAGTT (SEQ ID NO: 168) (sugars from the 5' end r19 d2, backbone not given here) | 1.86 fold | 0.90 log2
8 | RAG7-134: saRNA duplex; sense UGCUCUUUGUCCGCUGAUCTT (SEQ ID NO: 75), antisense GAUCAGCGGACAAAGAGCATT (SEQ ID NO: 239) (sugars from the 5' end r19 d2, backbone not given here) | 1.28 fold | 0.36 log2
9 | RAG7-137: saRNA duplex; sense UCCUGCUCUUUGUCCGCUGTT (SEQ ID NO: 151), antisense CAGCGGACAAAGAGCAGGATT (SEQ ID NO: 315) (sugars from the 5' end r19 d2, backbone not given here) | 1.12 fold | 0.16 log2
10 | RAG7-138: saRNA duplex; sense UUCCUGCUCUUUGUCCGCUTT (SEQ ID NO: 53), antisense AGCGGACAAAGAGCAGGAATT (SEQ ID NO: 217) (sugars from the 5' end r19 d2, backbone not given here) | 1.36 fold | 0.45 log2
11 | RAG7-139: saRNA duplex; sense UUUCCUGCUCUUUGUCCGCTT (SEQ ID NO: 7), antisense GCGGACAAAGAGCAGGAAATT (SEQ ID NO: 171) (sugars from the 5' end r19 d2, backbone not given here) | 1.73 fold | 0.79 log2
12 | RAG7-140: saRNA duplex; sense UUUUCCUGCUCUUUGUCCGTT (SEQ ID NO: 74), antisense CGGACAAAGAGCAGGAAAATT (SEQ ID NO: 238) (sugars from the 5' end r19 d2, backbone not given here) | 1.28 fold | 0.36 log2
13 | RAG7-142: saRNA duplex; sense GCUUUUCCUGCUCUUUGUCTT (SEQ ID NO: 164), antisense GACAAAGAGCAGGAAAAGCTT (SEQ ID NO: 328) (sugars from the 5' end r19 d2, backbone not given here) | 1.10 fold | 0.14 log2
14 | RAG7-143: saRNA duplex; sense UGCUUUUCCUGCUCUUUGUTT (SEQ ID NO: 102), antisense ACAAAGAGCAGGAAAAGCATT (SEQ ID NO: 266) (sugars from the 5' end r19 d2, backbone not given here) | 1.21 fold | 0.28 log2
15 | RAG7-144: saRNA duplex; sense CUGCUUUUCCUGCUCUUUGTT (SEQ ID NO: 18), antisense CAAAGAGCAGGAAAAGCAGTT (SEQ ID NO: 182) (sugars from the 5' end r19 d2, backbone not given here) | 1.56 fold | 0.64 log2
16 | RAG7-145: saRNA duplex; sense UCUGCUUUUCCUGCUCUUUTT (SEQ ID NO: 9), antisense AAAGAGCAGGAAAAGCAGATT (SEQ ID NO: 173) (sugars from the 5' end r19 d2, backbone not given here) | 1.71 fold | 0.77 log2
17 | RAG7-146: saRNA duplex; sense UUCUGCUUUUCCUGCUCUUTT (SEQ ID NO: 10), antisense AAGAGCAGGAAAAGCAGAATT (SEQ ID NO: 174) (sugars from the 5' end r19 d2, backbone not given here) | 1.69 fold | 0.76 log2
18 | RAG7-147: saRNA duplex; sense UUUCUGCUUUUCCUGCUCUTT (SEQ ID NO: 66), antisense AGAGCAGGAAAAGCAGAAATT (SEQ ID NO: 230) (sugars from the 5' end r19 d2, backbone not given here) | 1.31 fold | 0.39 log2
